Reference: PMC8623418, “Novel Multitarget Hydroxamic Acids with a Natural Origin CAP Group against Alzheimer’s Disease: Synthesis, Docking and Biological Evaluation” (Pharmaceutics, 2021)

Columns and labels:
SH-SY5Y cells = test: MTT cell viability, SH-SY5Y; type: cell-based; conditions: Homo sapiens, MTT test
Procedure: The effect of the hydroxamic acids on the viability of cells obtained from human embryonic kidneys, HEK 293, as well as the native form of human neuroblastoma, SH-SY5Y, was evaluated in the MTT test. Using a multifunctional flatbed analyzer, Cytation™3 (BioTek Instruments, Inc., Winooski, VT, USA), the optical density was determined at a wavelength of 530 nm. Based on the dose-dependent curves, the concentration values leading to 50% inhibition of cell population growth (IC50) were calculated.
Due to the fact that most compounds of the class of hydroxamic acids have high cytotoxic activity and are mainly used as anticancer drugs, their use as neuroprotective drugs is limited. Since the goal of our work was to search for agents for the pharmacological correction of neurodegenerative diseases, a necessary part of the biological activity study of the synthesized hydroxamic acids was to determine their effect on the survival of cell cultures. In our work, we used neuron-like neuroblastoma cells SH-SY5Y and a healthy cell line isolated from the human embryonic kidney, HEK 293.

5xFAD transgenic mice [1] = test: Ex vivo total glutathione in mouse brain homogenate; conditions: post-mortem, versus 5xFAD mice
Procedure: (§1) At the end of the in vivo series of experiments, the animals’ brains were sampled for further measurement of the lipid peroxidation level, as well as glutathione content in mouse brain homogenates. A synaptosomal p2 fraction containing mitochondria was also isolated to investigate the bioenergetic characteristics of organelles.
The performance of the glutathione system of the cell’s own antioxidant defense was evaluated using a commercially available kit (Glutathione Assay Kit, Sigma Aldrich, Saint Louis, MO, USA) in accordance with the protocol provided by the manufacturer. The total glutathione level was determined by spectrophotometric measurement at a wavelength of 412 nm by the amount of 2-nitro-5-thiobenzoic acid, a product formed during the reduction of GSH 5,5′-dithiobis-(2-nitrobenzoic acid).
The glutathione content was estimated using the method based on measurement of the absorption of a colored compound formed during the colorimetric reaction of DTNB with SH groups of glutathione. […] Therefore, the level of lipid peroxidation of mouse brain homogenates was also measured by its final product, malondialdehyde. […]

5xFAD transgenic mice [2] = test: Ex vivo electron transport chain activity of brain mitochondria (Seahorse OCR); type: in vivo; conditions: brain mitochondrial p2 fraction of treated 5xFAD mice
Procedure: as §1
The study on the effect of the electron transport chain complexes was carried out on a preparation of the mitochondrial p2 fraction of the brain (10 µg/well) using the Agilent Seahorse XF96e Analyzer (Seahorse Bioscience, Santa Clara, CA, USA) to measure the rate of oxygen uptake under the action of modulators. For this purpose, the activators of the electron transport chain complex I-glutamate/malate, the inhibitor of complex I, rotenone (2 µM), the substrate of complex II, potassium succinate ([…]), the inhibitor of complex III, antimycin A, and the substrates of complex IV, ascorbate, were used/TMPD (0.5 µM).
To evaluate mitochondrial functioning, we determined the functioning of the respiratory chain complexes using Seahorse Bioanalyzer. […] However, the oxygen consumption rate (OCR) was increased in transgenic animals treated with the test compounds.

[3] = tested on: lipid peroxidation (LPO) of rat brain homogenate; test: Lipid peroxidation (LPO) of rat brain homogenate, TBARS test; type: biochemical; conditions: substances at 100 μM, mean ± SEM; for % of Activity, Inhibition of LPO, Fe (II): Fe (II)-induced; for % of Activity, Inhibition of LPO, t-BHP: t-BHP-induced
Procedure: To obtain the brain homogenate, rats preliminarily anesthetized with CO2 were decapitated with a guillotine. The brain was homogenized in a buffer containing KCl (120 mM) and HEPES (20 mM), pH = 7.4 at 4 °C, and centrifuged at 1500 rpm to obtain a supernatant. The protein was quantified according to the standard microbiuret method.
To investigate the effect of the compounds on lipid peroxidation (LPO) of rat brain homogenate, we used the modified version of the TBARS test, which is based on the reaction of 2-thiobarbituric acid with the end LPO product—malonic dialdehyde (MDA). The plate well, according to the experimental scheme, contained the compounds under study (100 μM), rat brain homogenate (2 mg/mL), as well as ferrous iron ions ([…]) at a concentration of 500 μM and 1.6 mM tert-butyl hydroxyperoxide as an initiator. After 30 min of incubation at 37 °C, TBARS reagent was added to all samples, incubated for 90 min at 90 °C, and centrifuged at 6000 rpm for 15 min. The optical density of the selected supernatant was measured on a Victor 3 plate reader (Perkin Elmer) at λ = 540 nm.
A rat brain homogenate preparation containing fragments of cell membranes was used as a model system to investigate the antioxidant activity of the hydroxamic acids. To initiate the process of lipid peroxidation, ferrous ions were used to trigger the Fenton reaction, during which the iron valence changes and a highly reactive hydroxyl radical is formed, and tert-butyl hydroxyperoxide as a direct source of free radicals.

Structure (SMILES)	IC50 (SH-SY5Y cells) [µM]	Total glutathione content in brain (5xFAD transgenic mice [1])	Oxygen consumption rate (OCR) after injection of succinate (5xFAD transgenic mice [2]; complex II) [pmol/min]	Oxygen consumption rate (OCR) after injection of ascorbate (5xFAD transgenic mice [2]; complex IV) [pmol/min]	melting point [°C]	% of Activity, Inhibition of LPO, Fe (II) [3] [%]	% of Activity, Inhibition of LPO, t-BHP [3] [%]
O=C(CCCCCCC(=O)NC1C2CC3CC(C2)CC1C3)NO (stereo not shown) [compound 15, N^1-(Adamant-2-yl)-N^8-Hydroxyoctanediamide]	47.6 ± 7.19	tended to recover this parameter	251.00 ± 10.45	422.67 ± 14.61	133.6	21.52 ± 2.15	43.24 ± 1.28
O=C(/C=C/c1ccc(C(=O)NO)cc1)NC1C2CC3CC(C2)CC1C3 (stereo not shown) [compound 25, 4-((E)-3-((-Adamantan-2-yl)amino)-3-Oxoprop-1-en-1-yl)-N-Hydroxybenzamide]	59.51 ± 0.42					19.81 ± 4.83	44.59 ± 1.73
